In patent US11718613B2, “N-(phenylsulfonyl)benzamides and related compounds as Bcl-2 inhibitors” (THE REGENTS OF THE UNIVERSITY OF MICHIGAN, priority 2016, dated 2023):
Read-outs that look alike come from different tables or passages of the source. One block for each compound: values may come before it.

How the values were obtained:
[1] = tested on: RS4;11 cells; assay: RS4;11 cell viability (CCK-8) assay; type: cell-based, human; settings: 4 days, read-out: RS4;11 IC50 (Bcl-2 dependent)
Procedure: RS4;11 cells were obtained from American Type Culture Collection (ATCC). They were used within three months of thawing fresh vials. Cells were maintained in the recommended culture medium with 10% FBS at 37° C. and an atmosphere of 5% CO2.
The effect of representative Compounds of the Disclosure on cell viability was determined using Cell Counting Kit-8 (CCK-8) assay (Dojindo, Rockville, Md.) according to the manufacturer's instructions. 200 μL of a RS4;11 cell suspension (10000 cells/well) in culture medium were seeded into 96-well plates and cultured overnight. Each tested compound was serially diluted in culture medium, and 20 μL of the compound dilution was added to the corresponding well of the cell plate. After the addition of the tested compound, the cells were incubated at 37° C. in an atmosphere of 5% CO2 for 4 days. At the end of 4 days, 10 μL of CCK-8 solution was added to each well of the plate and incubated for 1-4 hours. The plates were read at 450 nm on the microplate spectrophotometer (Epoch2, BioTek). The readings were normalized to the vehicle cells, and the IC50 was calculated by nonlinear regression analysis using GraphPad Prism 5 software.

[2] = molecular target: Mcl-1 (Homo sapiens (Human), UniProt Q07820); assay: Fluorescence polarization competitive binding assay, Mcl-1; settings: FP competition with Flu-BID probe; read-out: Inhibitory activity IC50 Mcl-1
Chain of Mcl-1 (Q07820 whole entry): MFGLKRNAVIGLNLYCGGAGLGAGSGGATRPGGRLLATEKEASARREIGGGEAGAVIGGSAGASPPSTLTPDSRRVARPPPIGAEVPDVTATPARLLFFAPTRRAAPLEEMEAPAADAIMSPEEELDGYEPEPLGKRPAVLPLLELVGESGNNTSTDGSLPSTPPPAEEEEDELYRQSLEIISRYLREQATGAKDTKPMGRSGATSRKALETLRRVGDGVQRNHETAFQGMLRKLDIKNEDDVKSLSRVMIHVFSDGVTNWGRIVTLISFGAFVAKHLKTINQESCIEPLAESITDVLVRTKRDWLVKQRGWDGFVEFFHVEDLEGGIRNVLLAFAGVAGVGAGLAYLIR
Procedure: (§1) Fluorescence polarization values were measured using the Infinite M-1000 plate reader (Tecan U.S., Research Triangle Park, N.C.) in Microfluor 1 96-well, black, round-bottom plates (Thermo Scientific). […] Plates were mixed and incubated at room temperature for 1 hour with gentle shaking to assure equilibrium. […] Equilibrium dissociation constants (Kd) were then calculated by fitting the sigmoidal dose-dependent FP increases as a function of protein concentrations using Graphpad Prism 5.0 software (Graphpad Software, San Diego, Calif.).
(§2) Mixtures of 5 μl of the tested inhibitors in DMSO and 120 μl of pre-incubated protein/probe complexes in the assay buffer were added into assay plates and incubated at room temperature for 2 hours with gentle shaking. […] FP values were measured as described above. IC50 values were determined by nonlinear regression fitting of the competition curves.

[3] = molecular target: Bcl-xL (Homo sapiens (Human), UniProt Q07817); assay: Fluorescence polarization competitive binding assay, Bcl-xL; settings: FP competition with Flu-BAK probe; read-out: Inhibitory activity IC50 Bcl-xL
Chain of Bcl-xL (Q07817 whole entry): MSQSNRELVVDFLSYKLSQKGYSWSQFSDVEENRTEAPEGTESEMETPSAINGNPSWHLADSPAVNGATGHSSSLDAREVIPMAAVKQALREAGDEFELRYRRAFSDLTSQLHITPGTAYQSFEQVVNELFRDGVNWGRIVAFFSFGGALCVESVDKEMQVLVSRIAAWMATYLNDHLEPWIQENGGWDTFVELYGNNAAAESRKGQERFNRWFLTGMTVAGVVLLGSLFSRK
Procedure: as §1, §2

[4] = molecular target: Bcl-2 (Homo sapiens (Human), UniProt P10415); assay: Fluorescence polarization competitive binding assay, Bcl-2; settings: FP competition with Flu-BIM probe; read-out: Inhibitory activity IC50 Bcl-2
Chain of Bcl-2 (P10415 whole entry): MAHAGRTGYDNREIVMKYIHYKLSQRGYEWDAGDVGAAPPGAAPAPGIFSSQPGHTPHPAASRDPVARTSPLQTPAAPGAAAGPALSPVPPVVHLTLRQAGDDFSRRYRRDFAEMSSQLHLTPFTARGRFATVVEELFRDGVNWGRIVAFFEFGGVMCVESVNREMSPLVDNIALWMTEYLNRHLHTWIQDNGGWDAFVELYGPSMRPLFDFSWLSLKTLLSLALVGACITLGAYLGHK
Procedure: as §1, §2

[5] = tested on: RS4;11 leukemia xenograft; assay: RS4;11 leukemia xenograft model; type: in vivo; settings: oral gavage, nude mice
Procedure: The antitumor activity of Cpd. No. 6 (compound 6) was also studied in the RS4;11 leukemia xenograft model. Human RS4;11 tumor cells were injected into nude mice and treatment started on day 11 when the tumor size reached approximately 100 mm^3. Cpd. No. 6 was administered via oral gavage at indicated doses and schedules. Cpd.

IC50 [1]: 28 nM
Compound: 2-((1H-pyrrolo[2,3-b]pyridin-5-yl)oxy)-4-(1-((6- (4-chlorophenyl)-2-oxaspiro[3.5]non-6-en-7- yl)methyl)-1,2,3,6-tetrahydropyridin-4-yl)-N-((3- nitro-4-(((tetrahydro-2H-pyran-4- yl)methyl)amino)phenyl)sulfonyl)benzamide [compound 9]

IC50 [1]: 22 nM
Compound: (R)-N-((4-(((1,4-dioxan-2-yl)methyl)amino)-3- nitrophenyl)sulfonyl)-2-((1H-pyrrolo[2,3- b]pyridin-5-yl)oxy)-4-(1-((6-(4-chlorophenyl)-2- oxaspiro[3.5]non-6-en-7-yl)methyl)-1,2,3,6- tetrahydropyridin-4-yl)benzamide [Cpd. No. 5]

IC50 [2]: > 5000 nM | IC50 [1]: 3.7 nM
Compound: (R)-N-((4-(((1,4-dioxan-2-yl)methyl)amino)-3- nitrophenyl)sulfonyl)-2-((1H-pyrrolo[2,3- b]pyridin-5-yl)oxy)-4-(4-((6-(4-chlorophenyl)-2- oxaspiro[3.5]non-6-en-7-yl)methyl)piperazin-1- yl)benzamide [compound 8]

Compound: O=C(NS(=O)(=O)C1=CC2C(C=NN2CC2CCOCC2)C([N+](=O)[O-])=C1)c1ccc(N2CCN(CC3=C(c4ccc(Cl)cc4)CC4(CCC4)CC3)CC2)cc1Oc1cnc2[nH]ccc2c1 (stereo not drawn) [compound 62, 2-((1H-pyrrolo[2,3-b]pyridin-5-yl)oxy)-4-(4-((6-(4-chlorophenyl)spiro[3.5]non-6-en-7-yl)methyl)piperazin-1-yl)-N-((4-nitro-1-((tetrahydro-2H-pyran-4-yl)methyl)-3a,7a-dihydro-1H-indazol-6-yl)sulfonyl)benzamide]
IC50 ([1]; Homo sapiens, RS4-11, 96 h): 46 nM | IC50 [3]: 4 nM | IC50 [4]: 1.6 nM

Compound: O=C(NS(=O)(=O)c1ccc(NC[C@H]2COCCO2)c([N+](=O)[O-])c1)c1ccc(N2CCN(CC3=C(c4ccc(Cl)cc4)CC4(CCC4)CC3)CC2)cc1Oc1cnc2[nH]ccc2c1 [Cpd. No. 6, (S)-N-((4-(((1,4-dioxan-2-yl)methyl)amino)-3-nitrophenyl)sulfonyl)-2-((1H-pyrrolo[2,3-b]pyridin-5-yl)oxy)-4-(4-((6-(4-chlorophenyl)spiro[3.5]non-6-en-7-yl)methyl)piperazin-1-yl)benzamide]
antitumor activity (tumor growth) ([5]; FIG. 3): inhibits tumor growth | mouse weight ([5]; FIG. 4): does not cause weight loss in mice
